In publication PMC10404700, “A new member of the flavodoxin superfamily from Fusobacterium nucleatum that functions in heme trafficking and reduction of anaerobilin” (The Journal of Biological Chemistry, 2023):

Biological target: T1, FldH (Fusobacterium nucleatum, UniProt Q8RI14)
T1 construct: gene FN1822; full-length, 169 residues, N-terminal His6 tag (pET15b) cut with thrombin; expressed in E. coli BL21(DE3)pLysS; monomer
Test: X-ray crystal structure, […] A
Format: binding
Conditions: heme-bound protein; FMN copurified

T1 sequence (Q8RI14 entry or part of it): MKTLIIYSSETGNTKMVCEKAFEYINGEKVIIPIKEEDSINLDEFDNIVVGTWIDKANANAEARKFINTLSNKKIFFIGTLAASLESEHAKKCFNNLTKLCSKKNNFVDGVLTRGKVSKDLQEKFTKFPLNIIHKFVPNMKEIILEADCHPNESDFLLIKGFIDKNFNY

Cc1cc2nc3c(=O)[nH]c(=O)nc-3n(C[C@H](O)[C@H](O)[C@H](O)COP(=O)(O)O)c2cc1C [FMN]
X-ray crystal structure, 1.6 A: The FMN cofactor is situated at the carboxyl-terminal end of the β-parallel sheet
